Reference: patent US20080051464A1, “Protein phosphatase inhibitors” (The Cleveland Clinic Foundation, priority 2006, published 2008)

Tests used:
B16 melanoma cells = assay: B16 melanoma cell growth in culture (MTT assay); assay type: cell-based, mouse; conditions: doses up to 10 μg/ml, 5 days
Excerpt: (§1) L5, L6 and L6 analogs (Chembridge), mouse IFNγ ELISPOT Kit (R & D System) and antibody against pLck-pY394 or pERK1/2 (Cell Signaling) were purchased from commercial sources. Human Jurkat T cell line and murine B16 melanoma cell line (ATCC) and other cancer cell lines were maintained in […] culture medium supplemented with 10% fetal calf serum (FCS). The effects of chemical compounds on cancer cell growth in culture were quantified by MTT assays following our established procedures.

toxicity of L5 in mice = assay type: in vivo, mouse; conditions: 10 mg/kg, daily, s.c., two weeks
Protocol: (§2) FIG. 3 illustrates differential toxicity of L5 and L6. Jurkat cells were cultured in the absence or presence of lead compound #5 (L5) (A) or #6 (L6) (B) for 6 days prior to quantification of cell growth by MTT assays. Data represent mean ±SD of triplicate samples. Balb/c mice were treated with L5 (˜10 mg/kg body weight, s.c., daily, M-F/wk) for two weeks to assess its toxicity in vivo (C).
Spleens were harvested one hour post-treatment on day 4 and processed into splenocytes, which were used for assessing pLck levels by SDS-PAGE/Western blotting and for quantification of IFNγ+ cells by ELISPOT assays. Mice were also treated with L5 (˜10 mg/kg body weight, daily, s.c., n=2) to evaluate the toxicity of the compounds in vivo.

Jurkat cells = assay: Jurkat cell growth in culture (MTT assay); assay type: cell-based, human
Protocol: as §2, §1

[1] = system: pZap70, pSlp76 and pLAT in Jurkat cells; assay: induction of pZap70, pSlp76 and pLAT in Jurkat cells (Western blotting); assay type: cell-based, human
Protocol: Jurkat cells in culture medium (3×10^6 cells/ml, 1 ml/tube) were treated with agents for designated times at room temperature. After brief centrifuging in a microfuge (4,000 rpm, 2 min), the cell pellet was lysed on ice for 30 min in 100 μl of cold lysis buffer (1% NP40, 50 mM Tris, pH 7.4, 150 mM NaCl, 20 mM NaF, 0.2 mM Na3VO4 and 1 mM Na3MO4) containing a cocktail of proteinase inhibitors (Sigma, 1 tablet/10 ml). The lysates were cleared by centrifuging (14,000 rpm, 10 min) in a microfuge at 4° C. to remove insoluble parts, mixed with equal volume of 2×SDS-PAGE sample buffer, boiled for 5 min and analyzed (˜3×10^5 cells/well) by SDS-PAGE/Western blotting. Relative intensities of phosphotyrosine bands were quantified through densitometry analysis.
Jurkat cells in culture medium (3×10^6 cells/ml, 1 ml/tube) were treated with agents for designated times at room temperature. […] The lysates were cleared by centrifuging (14,000 rpm, 10 min) in a microfuge at 4° C. to remove insoluble parts, mixed with equal volume of 2×SDS-PAGE sample buffer, boiled for 5 min and analyzed (˜3×10^5 cells/well) by SDS-PAGE/Western blotting as described previously (17, 18). Relative intensities of phosphotyrosine bands were quantified through densitometry analysis.

O=C1C=CC(=O)C(c2cc(Cl)ccc2Cl)=C1 [L5]
direct toxicity against B16 cells (B16 melanoma cells): little direct toxicity | viability of mice (toxicity of L5 in mice): all alive | toxicity against Jurkat cells in culture (summary) (Jurkat cells): marked toxicity | growth of Jurkat cells in culture (Jurkat cells; ~30 ng-1 μg/ml, 6 days): not markedly affected | levels of pZap70 and pSlp76 ([1]; 0.01, 0.1, 1 or 3 μg/ml): obviously increased | pLAT ([1]; L5-treated Jurkat cells): induced pLAT
